Measurements taken from PMC9694926, “Novel Uracil-Based Inhibitors of Acetylcholinesterase with Potency for Treating Memory Impairment in an Animal Model of Alzheimer’s Disease” (Molecules, 2022).
Where a name gives a salt, the structure may show the parent alone. Read-outs that look alike come from different tables or passages of the source.

How the values were obtained:
hAChE [1] = target: T1, hAChE (Homo sapiens, UniProt P22303); conditions: cited from earlier work; for IC50: human AChE
T1 construct: purchased Sigma-Aldrich

hBChE [2] = target: T2, hBChE (Homo sapiens, UniProt P06276); conditions: cited from earlier work
T2 construct: hBChE from blood plasma; purchased Sigma-Aldrich; host or cells: human blood plasma

CD1 mice [3] = conditions: i.p. injection, cited from earlier work
hAChE [4] = target: T1, hAChE; experiment: biochemical; assay type: biochemical; conditions: for AChE Selectivity: (IC50 BChE)/(IC50 AChE); for IC50: human AChE, acetylthiocholine 1 mM, mean of three independent measurements
Description: (§1) The inhibitory potency of compounds against hAChE and hBChE was studied using Ellman’s method. Acetylthiocholine iodide (ATC), butyrylthiocholine iodide (BTC), recombinant hAChE, hBChE from blood plasma, and 5,5′-dithio-bis-(2-nitrobenzoic) acid (DTNB) were purchased from Sigma-Aldrich (Sigma-Aldrich, St. Louis, MO, USA). Stock solutions of compounds (0.01 M) were prepared using ethanol or water. In the case of compounds soluble in ethanol, the final concentration of ethanol in the cuvette was 0.1% vol. […] The enzyme-catalyzed reaction of hydrolysis was carried out in 0.1 M phosphate buffer at pH 8.0 containing 0.25 units of hAChE or hBChE and 1 mM ATC or BTC as substrates. The tested compounds were pre-incubated with the enzyme for 5 min at 25 °C prior to the addition of the substrate and the commencement of hydrolysis kinetics recording. Experiments were performed in triplicate. […] The sample without substrate was used as a blank. The sample without inhibitor was used as a control (in a solution of 0.1% vol. ethanol in the case of compounds soluble in ethanol). Percentage of AChE/BChE inhibition was determined by comparison of rates of reaction of test samples relative to the control sample. The percentage of inhibition as a function of compound concentration was plotted using OriginPro 8.5 software (OriginLab Corporation, Northampton, MA, USA).

hBChE [5] = target: T2, hBChE; experiment: biochemical; conditions: butyrylthiocholine 1 mM, mean of three independent measurements
Description: as §1

[6] = Acute toxicity (LD50), intraperitoneal injection; assay type: in vivo; conditions: CD1, mouse, in vivo, ip; mice, i.p. injection
Description: (§2) All experiments involving animals were performed in accordance with the guidelines set out by the European Union Council Directive 2010/63/EU; the experimental protocols were approved by the Animal Care and Use Committee of the Federal Research Center “Kazan Scientific Center of the Russian Academy of Sciences”. Toxicological experiments were performed using intraperitoneal injection of the various compounds in CD1 mice weighing 20–25 g. Mice were maintained on a 12 h light/dark cycle (light from 7:00 a.m. to 7:00 p.m.) at 20−22 °C and 60−70% relative humidity. Five different doses (determined during preliminary tests) were used with six animals per dose. Animals were observed 14 days after injection, and symptoms of intoxication were recorded. […] LD50 was determined by the method of Weiss. Stock solutions of compounds were prepared in ethanol or water. Compounds were administered intraperitoneally in sterile physiological saline. The concentration of ethanol in physiological saline was 5% vol.

[7] = system: scopolamine-induced amnesia in mice; experiment: T-maze spatial memory test in scopolamine-induced amnesia model; assay type: in vivo, CD1 mice; conditions: scopolamine 2 mg/kg i.p.; 1 mg/kg p.o. daily
Description: During the first set of in vivo experiments, the ability of compound 2c to reverse the scopolamine-induced amnesia in mice was studied by means of behavioral testing in a T-maze. The percentages of correct choices and mice reaching the criterion of learning were evaluated along with the dynamic of reaching the criterion of learning. Amnesia was caused by intraperitoneal administration of scopolamine (2 mg/kg) 40 min prior to testing. […]. The control group of mice was treated with saline. The behavior of mice was observed within 18 days (Figure 6A).
Scopolamine, representing a muscarinic acetylcholine receptor antagonist, produces a transient receptor blockade and cognitive deficits, which can be considered as a model of AD [28]. CD1 mice were randomly divided into 5 groups (n = 8–10): control group of mice treated with saline; mice injected with a water solution of scopolamine (2 mg/kg, i.p.) at 40 min before testing; […]. Drugs were administered over 18 days.
A reward alternation task was used to assess spatial memory performance in T-maze (OpenScience, Moscow, Russia) as previously described. Briefly, prior to commencing T-maze testing, mice were placed on a food-deprivation schedule over 3 days. […] The percentages of correct choices and mice reaching the criterion of learning were evaluated along with the dynamic of reaching the criterion of learning.

APP/PS1 mice = conditions: 1 mg/kg p.o. daily
Description: Wild-type and APP/PS1 saline treated mice were employed as negative and positive controls, respectively. The behavior of mice in the T-maze was observed within 18 days (Figure 7A).
Mice were assigned to four groups (n = 8–10). […] APP/PS1 mice and their wild-type non-transgenic littermates that received saline were used as positive and negative controls.
A reward alternation task was used to assess spatial memory performance in T-maze (OpenScience, Moscow, Russia) as previously described [32, 33]. Briefly, prior to commencing T-maze testing, mice were placed on a food-deprivation schedule over 3 days. On the fourth day, mice were placed in the start arm of the T-maze and made it possible to move freely. Over the next 14 days of testing, mice were given 6 pairs of training trials. In the first trial of each pair (forced trial), one of the goal arm guillotine doors was closed and the mouse was constrained to selecting the opposite arm. The mouse was returned to the start box 15–20 s after consuming the reward (diluted sweetened condensed milk). In the second (free choice) trial, both goal arm doors were opened, the arm opposite the one selected in the forced trial was baited. […] The percentages of correct choices and mice reaching the criterion of learning were evaluated along with the dynamic of reaching the criterion of learning.

CD1 mice [8] = experiment: Acute toxicity (LD50), intraperitoneal injection; assay type: in vivo; conditions: i.p. injection
Description: as §2

T2 sequence (P06276 29-602): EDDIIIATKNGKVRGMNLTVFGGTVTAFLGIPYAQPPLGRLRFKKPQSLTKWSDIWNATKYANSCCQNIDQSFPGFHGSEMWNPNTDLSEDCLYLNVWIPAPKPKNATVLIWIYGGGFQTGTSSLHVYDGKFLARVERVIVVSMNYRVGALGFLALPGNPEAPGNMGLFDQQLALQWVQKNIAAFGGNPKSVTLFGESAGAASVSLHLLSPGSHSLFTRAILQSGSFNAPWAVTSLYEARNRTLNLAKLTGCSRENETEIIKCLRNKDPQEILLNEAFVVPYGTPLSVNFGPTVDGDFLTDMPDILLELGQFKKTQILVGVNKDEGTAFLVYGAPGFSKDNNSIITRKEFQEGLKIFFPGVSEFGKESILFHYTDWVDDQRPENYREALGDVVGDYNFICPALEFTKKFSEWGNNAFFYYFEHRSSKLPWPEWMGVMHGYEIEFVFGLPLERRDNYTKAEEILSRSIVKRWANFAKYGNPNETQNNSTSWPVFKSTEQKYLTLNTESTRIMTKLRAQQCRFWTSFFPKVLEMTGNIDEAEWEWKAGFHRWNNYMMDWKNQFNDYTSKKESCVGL
T1 sequence (P22303 32-614): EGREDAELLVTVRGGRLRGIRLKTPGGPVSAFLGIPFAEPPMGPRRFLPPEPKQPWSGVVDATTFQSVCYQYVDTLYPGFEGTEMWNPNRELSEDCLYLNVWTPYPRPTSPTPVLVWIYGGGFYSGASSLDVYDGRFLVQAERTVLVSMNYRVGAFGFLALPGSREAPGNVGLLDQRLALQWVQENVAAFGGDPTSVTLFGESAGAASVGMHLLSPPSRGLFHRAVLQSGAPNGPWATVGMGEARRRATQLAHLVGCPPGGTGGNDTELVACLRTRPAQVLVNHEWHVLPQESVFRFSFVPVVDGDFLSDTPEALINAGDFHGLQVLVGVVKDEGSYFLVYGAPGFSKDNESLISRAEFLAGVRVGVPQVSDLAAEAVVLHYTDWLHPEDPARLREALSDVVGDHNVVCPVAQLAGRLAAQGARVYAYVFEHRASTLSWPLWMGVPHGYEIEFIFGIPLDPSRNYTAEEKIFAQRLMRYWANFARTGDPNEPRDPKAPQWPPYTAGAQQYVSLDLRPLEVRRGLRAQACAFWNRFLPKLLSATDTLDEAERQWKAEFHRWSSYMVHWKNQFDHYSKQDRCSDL

Row | SMILES | AChE Selectivity (hAChE [4]) | IC50 (hAChE [4]) [µM] | IC50 (hBChE [5]) [µM] | LD50 at 14 days [6] [mg/kg] | also measured
1 | CCN(CCCCCn1c(C)cc(=O)n(CCCCCN(CC)Cc2ccccc2[N+](=O)[O-])c1=O)Cc1ccccc1[N+](=O)[O-] [1a] | – | – | – | – | AChE Selectivity (hAChE [1]; (IC50 BChE)/(IC50 AChE), ref [12]): 10,000; IC50 (hAChE [1]; ref [12]): 0.0035 ± 0.0003 µM; IC50 (hBChE [2]; ref [12]): 35 µM; LD50 (CD1 mice [3]; ref [12]): 51 mg/kg
2 | CCN(CCCCCn1c(C)cc(=O)n(CCCCCN(CC)Cc2ccccc2C(F)(F)F)c1=O)Cc1ccccc1C(F)(F)F [1b] | – | – | – | – | IC50 (hAChE [1]; ref [12]): 0.0056 ± 0.0007 µM; IC50 (hBChE [2]; ref [12]): 20 µM; LD50 (CD1 mice [3]; ref [12]): 49 mg/kg
3 | CCN(CCCCCn1c(C)cc(=O)n(CCCCCN(CC)Cc2ccccc2C#N)c1=O)Cc1ccccc1C#N [1c] | – | – | – | – | IC50 (hAChE [1]; ref [14]): 0.0073 ± 0.0006 µM; IC50 (hBChE [2]; ref [14]): 100 µM; LD50 (CD1 mice [3]; ref [14]): 138 mg/kg
4 | CCN(CCCn1c(C)cc(=O)n(CCCN(CC)Cc2cccc(C(=O)OC)c2)c1=O)Cc1cccc(C(=O)OC)c1 [2a, 1,3-Bis[3-(meta-methoxycarbonylbenzylethylamino)propyl]-6-methyluracil] | 0.08 | 210 | 16 | 170 | –
5 | CCN(CCCCn1c(C)cc(=O)n(CCCCN(CC)Cc2cccc(C(=O)OC)c2)c1=O)Cc1cccc(C(=O)OC)c1 [2b, 1,3-Bis[4-(meta-methoxycarbonylbenzylethylamino)butyl]-6-methyluracil] | 722 | 0.027 ± 0.003 | 19.5 | 120 | –
6 | CCN(CCCCCCn1c(C)cc(=O)n(CCCCCCN(CC)Cc2cccc(C(=O)OC)c2)c1=O)Cc1cccc(C(=O)OC)c1 [2d, 1,3-Bis[6-(meta-methoxycarbonylbenzylethylamino)hexyl]-6-methyluracil] | 285 | 0.0047 ± 0.00017 | 1.34 ± 0.33 | 47.5 | –
7 | CCN(CCCCCn1c(C)cc(=O)n(CCCCCN(CC)Cc2cccc(C(=O)[O-])c2)c1=O)Cc1cccc(C(=O)[O-])c1.[Na+].[Na+] [2e, 1,3-Bis[5-((meta-methylbenzoate)ethylamino)pentyl]-6-methyluracil disodium salt] | 1.6 × 10^6 | 0.013 ± 0.001 | ~21000 | 170 | –
8 | CCN(CCCCn1c(C)cc(=O)n(CCCCN(CC)Cc2ccc(C(=O)OC)cc2)c1=O)Cc1ccc(C(=O)OC)cc1 [3a, 1,3-Bis[4-(para-methoxycarbonylbenzylethylamino)butyl]-6-methyluracil] | 39 | 3.3 ± 0.58 | 128 | 51 | –
9 | CCN(CCCCCn1c(C)cc(=O)n(CCCCCN(CC)Cc2ccc(C(=O)OC)cc2)c1=O)Cc1ccc(C(=O)OC)cc1 [3b, 1,3-Bis[5-(para-methoxycarbonylbenzylethylamino)pentyl]-6-methyluracil] | 355.5 | 0.768 ± 0.08 | 273 | 188 | –
10 | CCN(CCCCCCn1c(C)cc(=O)n(CCCCCCN(CC)Cc2ccc(C(=O)OC)cc2)c1=O)Cc1ccc(C(=O)OC)cc1 [3c, 1,3-Bis[6-(para-methoxycarbonylbenzylethylamino)hexyl]-6-methyluracil] | 2218 | 0.027 ± 0.007 | 59.9 | 87 | selectivity against AChE lower compared to compound 2c (hAChE [4]; AChE vs BChE): more than 15 times
11 | CCN(CCCCCn1c(C)cc(=O)n(CCCCCN(CC)Cc2ccc(C(=O)[O-])cc2)c1=O)Cc1ccc(C(=O)[O-])cc1.[Na+].[Na+] [3d, 1,3-Bis[5-((para-methylbenzoate)ethylamino)pentyl]-6-methyluracil disodium salt] | – | 0.0046 ± 0.0004 | > 100000 | 168 | –
12 | CCN(CCCCn1c(=O)c2ccccc2n(CCCCN(CC)Cc2cccc(C(=O)OC)c2)c1=O)Cc1cccc(C(=O)OC)c1 [4a, 1,3-Bis[4-(meta-methoxycarbonylbenzylethylamino)butyl]-quinazoline-2,4-dione] | 7 | 0.46 ± 0.095 | 3.16 ± 0.39 | 120 | –
13 | CCN(CCCCCn1c(=O)c2ccccc2n(CCCCCN(CC)Cc2cccc(C(=O)OC)c2)c1=O)Cc1cccc(C(=O)OC)c1 [4b] | 8.2 | 0.29 ± 0.042 | 2.38 ± 0.49 | 93 | –
14 | COc1cc2c(cc1OC)C(=O)C(CC1CCN(Cc3ccccc3)CC1)C2 (centres unmarked) [Donepezil, donepezil hydrochloride] | – | – | – | – | percentage of correct choices in T-maze [7]: 66.78 ± 2.62%; percentage of mice reaching the criterion of learning by day 14 [7]: 80%; percentage of correct choices in T-maze (APP/PS1 mice): 67.46 ± 2.35%; percentage of mice reaching the criterion of learning (APP/PS1 mice): 50%
15 | CCN(CCCCCn1c(C)cc(=O)n(CCCCCN(CC)Cc2cccc(C(=O)OC)c2)c1=O)Cc1cccc(C(=O)OC)c1 [compound 9] | – | – | – | – | LD50 (CD1 mice [8]): 96 mg/kg; solubility in water (Solubility in water): water-soluble
